Assay results published in patent publication US20190177284A1, “TETRAZOLYL-CONTAINING CYCLOPROPANECARBOXAMIDES” (Bayer Pharma Aktiengesellschaft, priority 2017, published 2019).
pIC50: −log10 of the molar value.

Molecular target: T1, human Bradykinin B1 receptor (Homo sapiens, UniProt P46663)
T1 construct: host or cells: CHO-K1
T1 sequence (P46663 1-353): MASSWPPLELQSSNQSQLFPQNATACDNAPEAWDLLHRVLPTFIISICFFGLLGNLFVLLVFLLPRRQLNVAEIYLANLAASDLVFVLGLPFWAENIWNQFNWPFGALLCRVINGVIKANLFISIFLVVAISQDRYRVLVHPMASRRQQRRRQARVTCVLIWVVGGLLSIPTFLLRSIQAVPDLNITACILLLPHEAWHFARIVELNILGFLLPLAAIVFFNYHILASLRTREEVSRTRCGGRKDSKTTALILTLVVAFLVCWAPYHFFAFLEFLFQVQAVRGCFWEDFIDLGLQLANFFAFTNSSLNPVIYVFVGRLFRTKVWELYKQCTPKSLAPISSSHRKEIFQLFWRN
Assay: Calcium flux Assay (FLIPR) with cells expressing human Bradykinin B1 receptor (hB1)
Format: cell-based
Settings: absence of 0.1% BSA in assay buffer; CHO-K1 cell line expressing human B1 receptor; agonist Lys-(Des-Arg)-Bradykinin; read-out: hB1 free IC50
Protocol: The potency to inhibit the Bradykinin B1 receptor was determined for the compound examples of this invention in a cell-based fluorescent calcium-mobilisation assay. The assay measures the ability of compound examples to inhibit Bradykinin B1 receptor agonist-induced increase of intracellular free Ca^2+ in the cell line expressing Bradykinin B1 receptor. Specifically, calcium indicator-loaded cells are pre-incubated in the absence or presence of different concentrations of compound examples followed by the stimulation with a selective Bradykinin B1 receptor agonist peptide. The change of the intracellular Ca^2+ concentration is monitored with a fluorescent plate reader FLIPR^TETRA®
Calcium flux Assays (FLIPR) with cells expressing human Bradykinin B1 receptor (hB1) Calcium flux Assay (FLIPR) with recombinant cells for Bradykinin B1 receptor antagonist, either in the presence (hB1 IC50) or absence (hB1 free IC50) of 0.1% Bovine Serum Albumin (BSA) in assay buffer.
CHO—K1 cell line expressing human B1 receptor was purchased from Euroscreen (Gosselies, Belgium, with reference name hB1-D1). The cells were grown in Nutrient Mixture Ham's F12 (Sigma) containing 10% Foetal bovine serum (Sigma) and 400 μg/mL G418 (Sigma), 5 μg/mL puromycin (Sigma).
For the calcium flux assay, 80% confluent cells were detached from the culture vessels with Versene (Gibco), and seeded into 384-well plates (Cell binding Surface; Corning, N.Y.; #3683) at a density of 15,000 cells per well. Cells were seeded in a volume of 50 μL in medium without antibiotics and incubated overnight in a humidified atmosphere with 5% CO2 at 37° C. […] The calcium indicator loaded cells were incubated at 37° C. for 2 hrs. Extracellular dye was then removed and each well was filled with 45 μL of assay buffer. Cell plates were kept in dark until used. Example compounds were assayed at 8 concentrations in triplicate. Serial 10-fold dilutions in 100% DMSO were made at a 100-times higher concentration than the final concentration, and then diluted 1:10 in assay buffer. 5 μL of each diluted compound was added to the well of cell plates (yielding final concentration with 1% DMSO), and incubated for 30 min at 28° C. before the addition of B1 receptor agonist on the FLIPR instrument.
Agonist plates contained the agonist Lys-(Des-Arg)-Bradykinin (Bachem, Brackley) at 3.5×EC90 in assay buffer with 1% DMSO. The addition of agonist 20 μl per well to the assay plate was carried out on the FLIPR instrument while continuously monitoring Ca^2+-dependent fluorescence at 538 nm. A peptide antagonist Lys-(Des-Arg-Leu)-Bradykinin (Bachem, Brackley) at 20 μM was used to determine the full inhibition as control.
Peak fluorescence was used to determine the response to agonist obtained at each concentration of example compound by the following equation:
% Response=100*(RFU(example compound)−RFU(control))/(RFU(DMSO)−RFU(control)) • RFU means relative fluorescence units. • Control means full inhibition by the peptide antagonist Lys-(Des-Arg-Leu)-Bradykinin at 20
The response values were plotted against the logarithm of the example compound concentrations. The example compounds were tested in triplicates per plate and mean values were plotted in Excel XLfit to determine IC50 values, percentage of maximal inhibition and the Hill slopes.
IC50 values of example compounds in Calcium flux Assay (FLIPR) as shown in table 1 were determined according to the protocol described above in the absence of 0.1% BSA in assay buffer.

SMILES	pIC50
CN(C(=O)c1ccc(NC(=O)C2(c3cccc(Cl)c3)CC2)cc1-c1nnn[nH]1)C1CCOCC1 [Example 46, 4-({[1-(3-Chlorophenyl)cyclopropyl]carbonyl}amino)-N-methyl-N-(tetrahydro-2H-pyran-4-yl)-2-(1H-tetrazol-5-yl)benzamide]	5.48
CN(C(=O)c1ccc(NC(=O)C2(c3ccc(C(F)(F)F)cc3F)CC2)cc1-c1nnn[nH]1)C1CCOCC1 [Example 47, 4-[({1-[2-Fluoro-4-(trifluoromethyl)phenyl]cyclopropyl}carbonyl)amino]-N-methyl-N-(tetrahydro-2H-pyran-4-yl)-2-(1H-tetrazol-5-yl)benzamide]	6.35
CN(CC1CCOCC1)C(=O)c1ccc(NC(=O)C2(c3ccc(C(F)(F)F)cc3F)CC2)cc1-c1nnn[nH]1 [Example 49, 4-[({1-[2-Fluoro-4-(trifluoromethyl)phenyl]cyclopropyl}carbonyl)amino]-N-methyl-N-(tetrahydro-2H-pyran-4-ylmethyl)-2-(1H-tetrazol-5-yl)benzamide]	5.74
COC[C@@H](C)NC(=O)c1ccc(NC(=O)C2(c3ccc(C(F)(F)F)cc3F)CC2)cc1-c1nnn[nH]1 [Example 50, 4-[({1-[2-Fluoro-4-(trifluoromethyl)phenyl]cyclopropyl}carbonyl)amino]-N-[(2R)-1-methoxypropan-2-yl]-2-(1H-tetrazol-5-yl)benzamide]	7.05
COC[C@H](C)NC(=O)c1ccc(NC(=O)C2(c3ccc(C(F)(F)F)cc3F)CC2)cc1-c1nnn[nH]1 [Example 51, 4-[({1-[2-Fluoro-4-(trifluoromethyl)phenyl]cyclopropyl}carbonyl)amino]-N-[(2S)-1-methoxypropan-2-yl]-2-(1H-tetrazol-5-yl)benzamide]	6.39
O=C(N[C@@H]1CCOC1)c1ccc(NC(=O)C2(c3ccc(C(F)(F)F)cc3F)CC2)cc1-c1nnn[nH]1 [Example 53, 4-[({1-[2-Fluoro-4-(trifluoromethyl)phenyl]cyclopropyl}carbonyl)amino]-N-[(3R)-tetrahydrofuran-3-yl]-2-(1H-tetrazol-5-yl)benzamide]	5.44
CC(C)CN(C)C(=O)c1ccc(NC(=O)C2(c3ccc(C(F)(F)F)cc3F)CC2)cc1-c1nnn[nH]1 [Example 55, 4-[({1-[2-Fluoro-4-(trifluoromethyl)phenyl]cyclopropyl}carbonyl)amino]-N-isobutyl-N-methyl-2-(1H-tetrazol-5-yl)benzamide]	5.75
Cc1ccc(NC(=O)c2ccc(NC(=O)C3(c4ccc(C(F)(F)F)cc4F)CC3)cc2-c2nnn[nH]2)nc1 [Example 56, 4-[({1-[2-Fluoro-4-(trifluoromethyl)phenyl]cyclopropyl}carbonyl)amino]-N-(5-methylpyridin-2-yl)-2-(1H-tetrazol-5-yl)benzamide]	7.30
Cc1ccc(NC(=O)c2ccc(NC(=O)C3(c4ccc(C(F)(F)F)cc4F)CC3)cc2-c2nnn[nH]2)cn1 [Example 57, 4-[({1-[2-Fluoro-4-(trifluoromethyl)phenyl]cyclopropyl}carbonyl)amino]-N-(6-methylpyridin-3-yl)-2-(1H-tetrazol-5-yl)benzamide]	7.54
CCOC(=O)c1c(C)cc(NC(=O)C2(c3ccc(C(F)(F)F)cc3F)CC2)cc1-c1nnn[nH]1 [Example 60, Ethyl 4-[({1-[2-fluoro-4-(trifluoromethyl)phenyl]cyclopropyl}carbonyl)amino]-2-methyl-6-(1H-tetrazol-5-yl)benzoate]	7.59
O=C(O[C@H]1CCOC1)c1c(F)cc(NC(=O)C2(c3ccc(C(F)(F)F)cc3F)CC2)cc1-c1nnn[nH]1 [Example 62, (3S)-tetrahydrofuran-3-yl 2-fluoro-4-[({1-[2-fluoro-4-(trifluoromethyl)phenyl]cyclopropyl}carbonyl)amino]-6-(1H-tetrazol-5-yl)benzoate]	8.70
Cc1ccc(NC(=O)c2c(F)cc(NC(=O)C3(c4ccc(C(F)(F)F)cc4F)CC3)cc2-c2nnn[nH]2)nc1 [Example 63, 2-Fluoro-4-[({1-[2-fluoro-4-(trifluoromethyl)phenyl]cyclopropyl}carbonyl)amino]-N-(5-methylpyridin-2-yl)-6-(1H-tetrazol-5-yl)benzamide]	7.29
Cc1cc(NC(=O)C2(c3ccc(C(F)(F)F)cc3F)CC2)cc(-c2nnn[nH]2)c1C(=O)O[C@H]1CCOC1 [Example 65, (3S)-tetrahydrofuran-3-yl 4-[({1-[2-fluoro-4-(trifluoromethyl)phenyl]cyclopropyl}carbonyl)amino]-2-methyl-6-(1H-tetrazol-5-yl)benzoate]	7.21
Cc1ccc(NC(=O)c2c(C)cc(NC(=O)C3(c4ccc(C(F)(F)F)cc4F)CC3)cc2-c2nnn[nH]2)nc1 [Example 66, 4-[({1-[2-fluroo-4-(trifluoromethyl)phenyl]cyclopropyl}carbonyl)amino]-2-methyl-N-(5-methylpyridin-2-yl)-6-(1H-tetrazol-5-yl)benzamide]	5.84

The remaining molecules from weak to strong by pIC50, led by results:

pIC50	SMILES
5.82	O=C(N[C@H]1CCOC1)c1ccc(NC(=O)C2(c3ccc(C(F)(F)F)cc3F)CC2)cc1-c1nnn[nH]1 [Example 54, 4-[({1-[2-Fluoro-4-(trifluoromethyl)phenyl]cyclopropyl}carbonyl)amino]-N-[(3S)-tetrahydrofuran-3-yl]-2-(1H-tetrazol-5-yl)benzamide]
6.84	COC(C)(C)CNC(=O)c1ccc(NC(=O)C2(c3ccc(C(F)(F)F)cc3F)CC2)cc1-c1nnn[nH]1 [Example 52, 4-[({1-[2-Fluoro-4-(trifluoromethyl)phenyl]cyclopropyl}carbonyl)amino]-N-(2-methoxy-2-methylpropyl)-2-(1H-tetrazol-5-yl)benzamide]
6.88	O=C(NC1CCOCC1)c1ccc(NC(=O)C2(c3ccc(C(F)(F)F)cc3F)CC2)cc1-c1nnn[nH]1 [Example 45, 4-[({1-[2-Fluoro-4-(trifluoromethyl)phenyl]cyclopropyl}carbonyl)amino]-N-(tetrahydro-2H-pyran-4-yl)-2-(1H-tetrazol-5-yl)benzamide]
7.22	O=C(NCC1CCOCC1)c1ccc(NC(=O)C2(c3ccc(C(F)(F)F)cc3F)CC2)cc1-c1nnn[nH]1 [Example 48, 4-[({1-[2-Fluoro-4-(trifluoromethyl)phenyl]cyclopropyl}carbonyl)amino]-N-(tetrahydro-2H-pyran-4-ylmethyl)-2-(1H-tetrazol-5-yl)benzamide]
7.60	Cc1cc(NC(=O)C2(c3ccc(C(F)(F)F)cc3F)CC2)cc(-c2nnn[nH]2)c1C(=O)OC1CCCC1 [Example 64, Cyclopentyl 4-[({1-[2-fluoro-4-(trifluoromethyl)phenyl]cyclopropyl}carbonyl)amino]-2-methyl-6-(1H-tetrazol-5-yl)benzoate]
8.30	CCOC(=O)c1c(F)cc(NC(=O)C2(c3ccc(C(F)(F)F)cc3F)CC2)cc1-c1nnn[nH]1 [Example 59, Ethyl 2-fluoro-4-[({1-[2-fluoro-4-(trifluoromethyl)phenyl]cyclopropyl}-carbonyl)amino]-6-(1H-tetrazol-5-yl)benzoate]
8.70	O=C(OC1CCCC1)c1c(F)cc(NC(=O)C2(c3ccc(C(F)(F)F)cc3F)CC2)cc1-c1nnn[nH]1 [Example 61, Cyclopentyl 2-fluoro-4-[({1-[2-fluoro-4-(trifluoromethyl)phenyl]cyclopropyl}-carbonyl)amino]-6-(1H-tetrazol-5-yl)benzoate]
